Assay results from patent US8906904B2, “Alkoxy pyrazoles as soluble guanylate cyclase activators” (Boehringer Ingelheim International GmbH, priority 2012, dated 2014).
≈ marks a conversion by molar mass, not a printed value.

Assay: Assessment of solubility (McIlvaine buffers, 24 h shake, UPLC-UV)
Type: physicochemical
Conditions: kinetic from dmso stock
How it was run: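 Compounds from 10 mM DMSO stocks were shaken for 24 h at room temperature in McIlvaine buffers at pH 2.2, 4.5 and 6.8 (2.5% v/v DMSO final), then filtered. Filtrates were quantified by UPLC-UV at 254 nm against a 50:50 acetonitrile/water reference assumed fully dissolved, as a single determination.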

| solubility at 24 h (pH 2.2, aqueous buffer) [µg/mL] | solubility at 24 h (pH 4.5, aqueous buffer) [µg/mL] | solubility at 24 h (pH 6.8, aqueous buffer) [µg/mL] | SMILES |
| --- | --- | --- | --- |
| 100 (≈ 171 µM) | 84 (≈ 144 µM) | 79 (≈ 135 µM) | COc1c(C(=O)O)cnn1-c1cccc(-c2cccc(C)c2OCc2ccc3c(c2)CCN(C2CCOCC2OC)C3)n1 (stereo not drawn) [Compound 81] |
| 93 (≈ 158 µM) | 67 (≈ 114 µM) | 75 (≈ 127 µM) | CCOc1c(C(=O)O)cnn1-c1cccc(-c2cccc(C)c2OCc2ccc3c(c2)CCN(CC2CC(F)(F)C2)C3)n1 [Compound 96] |
| 100 (≈ 172 µM) | 66 (≈ 113 µM) | 66 (≈ 113 µM) | CCOc1c(C(=O)O)cnn1-c1cccc(-c2cccc(C)c2OCc2ccc3c(c2)CCN(C2CCOCC2C)C3)n1 (stereo not drawn) [Compound 64] |
| 93 (≈ 168 µM) | 44 (≈ 79.3 µM) | 81 (≈ 146 µM) | Cc1cccc(-c2cccc(-n3ncc(C(=O)O)c3OC(C)C)n2)c1OCc1ccc2c(c1)CCN(C1COC1)C2 [Compound 39] |
| 96 (≈ 169 µM) | 83 (≈ 146 µM) | 87 (≈ 153 µM) | CCOc1c(C(=O)O)cnn1-c1cccc(-c2cccc(C)c2OCc2ccc3c(c2)CCN(C2CCOCC2)C3)n1 [Compound 77] |
| 110 (≈ 189 µM) | 88 (≈ 151 µM) | 91 (≈ 156 µM) | COc1c(C(=O)O)cnn1-c1cccc(-c2cccc(C)c2OCc2ccc3c(c2)CCN(C2CC(C)OC(C)C2)C3)n1 (stereo not drawn) [Compound 62] |
| 110 (≈ 193 µM) | 93 (≈ 163 µM) | 96 (≈ 168 µM) | COc1c(C(=O)O)cnn1-c1cccc(-c2cccc(C)c2OCc2ccc3c(c2)CCN(CC2COCCO2)C3)n1 (stereo not drawn) [Compound 92] |
| 93 (≈ 160 µM) | 75 (≈ 129 µM) | 78 (≈ 134 µM) | Cc1cccc(-c2cccc(-n3ncc(C(=O)O)c3OC(C)C)n2)c1OCc1ccc2c(c1)CCN(C1CCCOC1)C2 (stereo not drawn) [Compound 42] |
| 98 (≈ 170 µM) | 48 (≈ 83.5 µM) | 49 (≈ 85.2 µM) | CCOc1c(C(=O)O)cnn1-c1cccc(-c2cccc(Cl)c2OCc2ccc3c(c2)CCN(C2CCOC2)C3)n1 (stereo not drawn) [Compound 55] |
| 93 (≈ 168 µM) | 73 (≈ 132 µM) | 78 (≈ 141 µM) | CCOc1c(C(=O)O)cnn1-c1cccc(-c2cccc(C)c2OCc2ccc3c(c2)CCN(C2CCOC2)C3)n1 (stereo not drawn) [Compound 35] |
| 120 (≈ 234 µM) | 96 (≈ 187 µM) | 110 (≈ 215 µM) | COc1c(C(=O)O)cnn1-c1cccc(-c2cccc(C)c2OCc2ccc3c(c2)CN(C2COC2)C3)n1 [Compound 85] |
| 91 (≈ 156 µM) | 77 (≈ 132 µM) | 80 (≈ 137 µM) | CCOc1c(C(=O)O)cnn1-c1cccc(-c2cccc(C)c2OCc2ccc3c(c2)CCN(CC2CCOCC2)C3)n1 [Compound 69] |
| 91 (≈ 173 µM) | 73 (≈ 139 µM) | 78 (≈ 148 µM) | CCOc1c(C(=O)O)cnn1-c1cccc(-c2cccc(C)c2OCc2ccc3c(c2)CCN(C(C)C)C3)n1 [Compound 32] |
| 91 (≈ 160 µM) | 72 (≈ 127 µM) | 74 (≈ 130 µM) | CCOc1c(C(=O)O)cnn1-c1cccc(-c2cccc(C)c2OCc2ccc3c(c2)CCN(C2CCCOC2)C3)n1 (stereo not drawn) [Compound 36] |
| 90 (≈ 166 µM) | 64 (≈ 118 µM) | 81 (≈ 150 µM) | CCOc1c(C(=O)O)cnn1-c1cccc(-c2cccc(C)c2OCc2ccc3c(c2)CCN(C2COC2)C3)n1 [Compound 6] |

The remaining lines, values behind:

| SMILES | solubility at 24 h (pH 2.2, aqueous buffer) [µg/mL] | solubility at 24 h (pH 4.5, aqueous buffer) [µg/mL] | solubility at 24 h (pH 6.8, aqueous buffer) [µg/mL] |
| --- | --- | --- | --- |
| COc1c(C(=O)O)cnn1-c1cccc(-c2cccc(C)c2OCc2ccc3c(c2)CCN(C2CC4CCC(C2)O4)C3)n1 (stereo not drawn) [Compound 87] | 110 (≈ 189 µM) | 87 (≈ 150 µM) | 90 (≈ 155 µM) |
| COc1c(C(=O)O)cnn1-c1cccc(-c2cccc(C(F)(F)F)c2OCc2ccc3c(c2C)CCN(C2CCOCC2)C3)n1 [Compound 84] | 110 (≈ 177 µM) | 86 (≈ 138 µM) | 89 (≈ 143 µM) |
| COc1c(C(=O)O)cnn1-c1cccc(-c2cccc(C)c2OCc2ccc3c(c2)CCN(C2CC(C)(C)OC(C)(C)C2)C3)n1 [Compound 73] | 86 (≈ 141 µM) | 67 (≈ 110 µM) | 71 (≈ 116 µM) |
| COc1c(C(=O)O)cnn1-c1cccc(-c2cc(F)cc(F)c2OCc2ccc3c(c2)CCN(C2CCOCC2)C3)n1 [Compound 53] | 84 (≈ 146 µM) | 65 (≈ 113 µM) | 70 (≈ 121 µM) |
| COc1c(C(=O)O)cnn1-c1cccc(-c2cccc(C)c2OCc2ccc3c(c2)CCN(C2C4CCOC4C2(C)C)C3)n1 (stereo not drawn) [Compound 75] | 120 (≈ 202 µM) | 93 (≈ 156 µM) | 90 (≈ 151 µM) |
| Cc1cccc(-c2cccc(-n3ncc(C(=O)O)c3OC(C)C)n2)c1OCc1ccc2c(c1C)CCN(CC1(C)COC1)C2 [Compound 46] | 100 (≈ 168 µM) | 82 (≈ 137 µM) | 86 (≈ 144 µM) |
| COc1c(C(=O)O)cnn1-c1cccc(-c2cccc(C)c2OCc2ccc3c(c2)CN(CC2CC(F)(F)C2)C3)n1 [Compound 82] | 120 (≈ 214 µM) | 100 (≈ 178 µM) | 97 (≈ 173 µM) |
| COc1c(C(=O)O)cnn1-c1cccc(-c2cc(F)cc(F)c2OCc2ccc3c(c2)CCN(C2COC2)C3)n1 [Compound 52] | 83 (≈ 151 µM) | 58 (≈ 106 µM) | 73 (≈ 133 µM) |
| CCOc1c(C(=O)O)cnn1-c1cccc(-c2cccc(Cl)c2OCc2ccc3c(c2)CCN(C(C)CO)C3)n1 (stereo not drawn) [Compound 56] | 87 (≈ 155 µM) | 66 (≈ 117 µM) | 77 (≈ 137 µM) |
| COCC(C)N1CCc2c(ccc(COc3c(C)cccc3-c3cccc(-n4ncc(C(=O)O)c4OC(C)C)n3)c2C)C1 (stereo not drawn) [Compound 44] | 100 (≈ 171 µM) | 85 (≈ 145 µM) | 88 (≈ 151 µM) |
| COCC(C)N1CCc2cc(COc3c(C)cccc3-c3cccc(-n4ncc(C(=O)O)c4OC(C)C)n3)ccc2C1 (stereo not drawn) [Compound 38] | 110 (≈ 193 µM) | 94 (≈ 165 µM) | 88 (≈ 154 µM) |
| COc1c(C(=O)O)cnn1-c1cccc(-c2cccc(C)c2OCc2ccc3c(c2C)CCN(C2CCOC2)C3)n1 (stereo not drawn) [Compound 31] | 110 (≈ 198 µM) | 89 (≈ 160 µM) | 94 (≈ 169 µM) |
